{"source": "patent US12162840B2", "about": "“Herbicidal compositions” (SYNGENTA PARTICIPATIONS AG, priority 2018, dated 2024)", "test_system": "cool season plant species", "assay": "B2 Post-emergence efficacy Test 2, cool season plant species", "format": "in vivo", "conditions": "15 days after application, 0=no damage, 100=total kill", "procedure": "Seeds of a variety of test species (see Table B1) were sown in standard soil in pots. After cultivation for 12 days (post-emergence) under controlled conditions in a glasshouse (at 24/18° C. or 20/16° C., at day/night; 16 hours light; 65% humidity), the plants were sprayed with an aqueous spray solution derived from the formulation of the technical active ingredient dissolved in IF50 (see Table B2 for composition) and adjuvant (Genapol XO80) was added to the spray solution at a rate of 0.2% v/v. [table] [table] After application, the test plants were grown in a glasshouse under controlled conditions (as above) and watered twice daily. Herbicidal activity was evaluated 15 days after application on a 0-100 scale. The results, where 0=no damage to test plant and 100=total kill of test plant are shown below in Tables 6 to 9."}
{"smiles": "Cc1nn(C)c(=O)c(-c2c(F)ccc(Cl)c2CCc2ccc(C#N)cc2)c1O", "note": "[Compound 1.024]", "values": [{"measurement": "Herbicidal activity (0-100 scale) ALOMY", "setting": "15 g/Ha", "value": 10}, {"measurement": "Herbicidal activity (0-100 scale) ALOMY", "setting": "30 g/Ha", "value": 30}, {"measurement": "Herbicidal activity (0-100 scale) ALOMY", "setting": "60 g/Ha", "value": 50}, {"measurement": "Herbicidal activity (0-100 scale) ALOMY", "setting": "125 g/Ha", "value": 70}, {"measurement": "Herbicidal activity (0-100 scale) ALOMY", "setting": "250 g/Ha", "value": 70}, {"measurement": "Herbicidal activity (0-100 scale) ALOMY", "setting": "500 g/Ha", "value": 70}, {"measurement": "Herbicidal activity (0-100 scale) AVEFA", "setting": "15 g/Ha", "value": 10}, {"measurement": "Herbicidal activity (0-100 scale) AVEFA", "setting": "30 g/Ha", "value": 20}, {"measurement": "Herbicidal activity (0-100 scale) AVEFA", "setting": "60 g/Ha", "value": 30}, {"measurement": "Herbicidal activity (0-100 scale) AVEFA", "setting": "125 g/Ha", "value": 60}, {"measurement": "Herbicidal activity (0-100 scale) AVEFA", "setting": "250 g/Ha", "value": 70}, {"measurement": "Herbicidal activity (0-100 scale) AVEFA", "setting": "500 g/Ha", "value": 80}, {"measurement": "Herbicidal activity (0-100 scale) BEAVA", "setting": "15 g/Ha", "value": 70}, {"measurement": "Herbicidal activity (0-100 scale) BEAVA", "setting": "30 g/Ha", "value": 70}, {"measurement": "Herbicidal activity (0-100 scale) BEAVA", "setting": "60 g/Ha", "value": 80}, {"measurement": "Herbicidal activity (0-100 scale) BEAVA", "setting": "125 g/Ha", "value": 80}, {"measurement": "Herbicidal activity (0-100 scale) BEAVA", "setting": "250 g/Ha", "value": 80}, {"measurement": "Herbicidal activity (0-100 scale) BEAVA", "setting": "500 g/Ha", "value": 100}, {"measurement": "Herbicidal activity (0-100 scale) BROTE", "setting": "15 g/Ha", "value": 0}, {"measurement": "Herbicidal activity (0-100 scale) BROTE", "setting": "30 g/Ha", "value": 0}, {"measurement": "Herbicidal activity (0-100 scale) BROTE", "setting": "60 g/Ha", "value": 10}, {"measurement": "Herbicidal activity (0-100 scale) BROTE", "setting": "125 g/Ha", "value": 20}, {"measurement": "Herbicidal activity (0-100 scale) BROTE", "setting": "250 g/Ha", "value": 40}, {"measurement": "Herbicidal activity (0-100 scale) BROTE", "setting": "500 g/Ha", "value": 70}, {"measurement": "Herbicidal activity (0-100 scale) BRSNN", "setting": "15 g/Ha", "value": 80}, {"measurement": "Herbicidal activity (0-100 scale) BRSNN", "setting": "30 g/Ha", "value": 90}, {"measurement": "Herbicidal activity (0-100 scale) BRSNN", "setting": "60 g/Ha", "value": 90}, {"measurement": "Herbicidal activity (0-100 scale) BRSNN", "setting": "125 g/Ha", "value": 90}, {"measurement": "Herbicidal activity (0-100 scale) BRSNN", "setting": "250 g/Ha", "value": 90}, {"measurement": "Herbicidal activity (0-100 scale) BRSNN", "setting": "500 g/Ha", "value": 90}, {"measurement": "Herbicidal activity (0-100 scale) CHEAL", "setting": "15 g/Ha", "value": 60}, {"measurement": "Herbicidal activity (0-100 scale) CHEAL", "setting": "30 g/Ha", "value": 90}, {"measurement": "Herbicidal activity (0-100 scale) CHEAL", "setting": "60 g/Ha", "value": 90}, {"measurement": "Herbicidal activity (0-100 scale) CHEAL", "setting": "125 g/Ha", "value": 90}, {"measurement": "Herbicidal activity (0-100 scale) CHEAL", "setting": "250 g/Ha", "value": 90}, {"measurement": "Herbicidal activity (0-100 scale) CHEAL", "setting": "500 g/Ha", "value": 100}, {"measurement": "Herbicidal activity (0-100 scale) GALAP", "setting": "30 g/Ha", "value": 20}, {"measurement": "Herbicidal activity (0-100 scale) GALAP", "setting": "60 g/Ha", "value": 20}, {"measurement": "Herbicidal activity (0-100 scale) GALAP", "setting": "125 g/Ha", "value": 60}, {"measurement": "Herbicidal activity (0-100 scale) GALAP", "setting": "250 g/Ha", "value": 90}, {"measurement": "Herbicidal activity (0-100 scale) GALAP", "setting": "500 g/Ha", "value": 90}, {"measurement": "Herbicidal activity (0-100 scale) HORVW", "setting": "15 g/Ha", "value": 0}, {"measurement": "Herbicidal activity (0-100 scale) HORVW", "setting": "30 g/Ha", "value": 10}, {"measurement": "Herbicidal activity (0-100 scale) HORVW", "setting": "60 g/Ha", "value": 10}, {"measurement": "Herbicidal activity (0-100 scale) HORVW", "setting": "125 g/Ha", "value": 10}, {"measurement": "Herbicidal activity (0-100 scale) HORVW", "setting": "250 g/Ha", "value": 10}, {"measurement": "Herbicidal activity (0-100 scale) HORVW", "setting": "500 g/Ha", "value": 20}, {"measurement": "Herbicidal activity (0-100 scale) KCHSC", "setting": "15 g/Ha", "value": 0}, {"measurement": "Herbicidal activity (0-100 scale) KCHSC", "setting": "30 g/Ha", "value": 0}, {"measurement": "Herbicidal activity (0-100 scale) KCHSC", "setting": "60 g/Ha", "value": 0}, {"measurement": "Herbicidal activity (0-100 scale) KCHSC", "setting": "125 g/Ha", "value": 10}, {"measurement": "Herbicidal activity (0-100 scale) KCHSC", "setting": "250 g/Ha", "value": 10}, {"measurement": "Herbicidal activity (0-100 scale) KCHSC", "setting": "500 g/Ha", "value": 20}, {"measurement": "Herbicidal activity (0-100 scale) LOLPE", "setting": "15 g/Ha", "value": 10}, {"measurement": "Herbicidal activity (0-100 scale) LOLPE", "setting": "30 g/Ha", "value": 70}, {"measurement": "Herbicidal activity (0-100 scale) LOLPE", "setting": "60 g/Ha", "value": 70}, {"measurement": "Herbicidal activity (0-100 scale) LOLPE", "setting": "125 g/Ha", "value": 90}, {"measurement": "Herbicidal activity (0-100 scale) LOLPE", "setting": "250 g/Ha", "value": 90}, {"measurement": "Herbicidal activity (0-100 scale) LOLPE", "setting": "500 g/Ha", "value": 90}, {"measurement": "Herbicidal activity (0-100 scale) POAAN", "setting": "15 g/Ha", "value": 10}, {"measurement": "Herbicidal activity (0-100 scale) POAAN", "setting": "30 g/Ha", "value": 20}, {"measurement": "Herbicidal activity (0-100 scale) POAAN", "setting": "60 g/Ha", "value": 30}, {"measurement": "Herbicidal activity (0-100 scale) POAAN", "setting": "125 g/Ha", "value": 80}, {"measurement": "Herbicidal activity (0-100 scale) POAAN", "setting": "250 g/Ha", "value": 80}, {"measurement": "Herbicidal activity (0-100 scale) POAAN", "setting": "500 g/Ha", "value": 90}, {"measurement": "Herbicidal activity (0-100 scale) POLCO", "setting": "15 g/Ha", "value": 80}, {"measurement": "Herbicidal activity (0-100 scale) POLCO", "setting": "60 g/Ha", "value": 90}, {"measurement": "Herbicidal activity (0-100 scale) POLCO", "setting": "125 g/Ha", "value": 90}, {"measurement": "Herbicidal activity (0-100 scale) POLCO", "setting": "250 g/Ha", "value": 90}, {"measurement": "Herbicidal activity (0-100 scale) POLCO", "setting": "500 g/Ha", "value": 100}, {"measurement": "Herbicidal activity (0-100 scale) SINAR", "setting": "15 g/Ha", "value": 80}, {"measurement": "Herbicidal activity (0-100 scale) SINAR", "setting": "30 g/Ha", "value": 80}, {"measurement": "Herbicidal activity (0-100 scale) SINAR", "setting": "60 g/Ha", "value": 80}, {"measurement": "Herbicidal activity (0-100 scale) SINAR", "setting": "250 g/Ha", "value": 90}, {"measurement": "Herbicidal activity (0-100 scale) SINAR", "setting": "500 g/Ha", "value": 100}, {"measurement": "Herbicidal activity (0-100 scale) STEME", "setting": "15 g/Ha", "value": 90}, {"measurement": "Herbicidal activity (0-100 scale) STEME", "setting": "30 g/Ha", "value": 90}, {"measurement": "Herbicidal activity (0-100 scale) STEME", "setting": "60 g/Ha", "value": 90}, {"measurement": "Herbicidal activity (0-100 scale) STEME", "setting": "125 g/Ha", "value": 90}, {"measurement": "Herbicidal activity (0-100 scale) STEME", "setting": "250 g/Ha", "value": 90}, {"measurement": "Herbicidal activity (0-100 scale) STEME", "setting": "500 g/Ha", "value": 100}, {"measurement": "Herbicidal activity (0-100 scale) TRZAW", "setting": "15 g/Ha", "value": 0}, {"measurement": "Herbicidal activity (0-100 scale) TRZAW", "setting": "30 g/Ha", "value": 0}, {"measurement": "Herbicidal activity (0-100 scale) TRZAW", "setting": "60 g/Ha", "value": 20}, {"measurement": "Herbicidal activity (0-100 scale) TRZAW", "setting": "125 g/Ha", "value": 30}, {"measurement": "Herbicidal activity (0-100 scale) TRZAW", "setting": "250 g/Ha", "value": 60}, {"measurement": "Herbicidal activity (0-100 scale) TRZAW", "setting": "500 g/Ha", "value": 70}, {"measurement": "Herbicidal activity (0-100 scale) VERPE", "setting": "15 g/Ha", "value": 80}, {"measurement": "Herbicidal activity (0-100 scale) VERPE", "setting": "30 g/Ha", "value": 80}, {"measurement": "Herbicidal activity (0-100 scale) VERPE", "setting": "60 g/Ha", "value": 90}, {"measurement": "Herbicidal activity (0-100 scale) VERPE", "setting": "125 g/Ha", "value": 80}, {"measurement": "Herbicidal activity (0-100 scale) VERPE", "setting": "250 g/Ha", "value": 100}, {"measurement": "Herbicidal activity (0-100 scale) VERPE", "setting": "500 g/Ha", "value": 100}]}
